30 molecules from patent publication US8563717B2, “Adenine derivatives” (GlaxoSmithKline LLC, priority 2008, dated 2013) can be followed below.

Counter-ions that a name gives are not always drawn.

The test deals with Interferon-α. Put plainly: Induction of Interferon-α using cryopreserved human PBMCs. The format is cell-based. To be noted: PBMC, 24 h incubation, normalised to 1 uM resiquimod, read-out: mean pEC50 for induction of IFN-α (converted). The procedure: Assay for the Induction of Interferon-α Using Cryopreserved Human Peripheral Blood Mononuclear Cells (PBMCs)
Compounds were dissolved in DMSO. Serial 2-fold dilutions with DMSO were prepared and 0.25 μl dispensed into 384-well clear Greiner polypropylene plates.
Blood samples of up to 200 ml were obtained from healthy human donors. Whole blood in 25 ml volumes was overlaid onto 15 ml Ficoll gradients in Leucosep tubes, and centrifuged at 1000 g for 20 min. Cells in the band at the plasma/histopaque interface were carefully removed and washed twice with PBS (centrifuged at 400 g for 5 min to harvest). The final pellet was resuspended in freezing medium (90% Heat-inactivated serum, 10% DMSO) to a cell concentration of 4×10^7 cells/ml. The resuspended cells were then cryopreserved (frozen) using a rate controlled freezer, and stored at −140° C. for up to 4 months.
Immediately prior to assay, vials of cryopreserved (frozen) PBMCs were thawed rapidly in a water bath at 37° C. A 1:10 dilution of the cells in trypan blue was prepared and counted. The PBMCs were then diluted in growth media [RPMI 1640 containing 10% fetal calf serum (invitrogen), Penicillin+[…] (Gibco cat. #25030-024, 1:50), L-Glutamine 2 mM, and 1000 units/ml recombinant human IFN-gamma (Preprotech catalogue #300-02)] to a density of 1×10^6 cells/ml, and 50 ul/well dispensed to 384-well clear Greiner polypropylene plates containing 0.25 μl DMSO or test compound in 0.25 μl DMSO. […] Plates were incubated for 24 h at 37° C. in 5% CO2.
A multi-isoform immunoassay was used to quantify IFN-α in PBMC supernatants. Rabbit polyclonal antibody against human IFN-α (catalogue number 31101, Stratech Scientific) was diluted 1:10000 in assay buffer (RPMI 1640 containing 10% fetal calf serum, Invitrogen) and 20 μl was added to each well of an MSD (Meso-Scale Discovery) single small-spot 384-well GAR (goat anti-rabbit antibody coated) plate. The plate was incubated for 1 hour at room temperature with vigorous shaking. Following three washes with PBS, 20 μl of cell supernatant were added to each well of the plate. The plate was then incubated for 1 hour at room temperature with vigorous shaking. A pair of monoclonal antibodies to IFN-α (catalogue numbers 21100 and 21112, Stratech Scientific) were labelled with sulfo-TAG (MSD), diluted 1:1000 in assay buffer and 20 μl added to each well of the plate. The plate was further incubated for 1 hour at room temperature with vigorous shaking. Following three washes with PBS, 30 μl of x2 T buffer (MSD) was added to each well and the plate was read on an MSD Sector 6000 plate reader.
Data were normalised to internal plate controls of 1 uM resiquimod (n=16) and DMSO (n=16). pEC50 values were derived by 4-parameter curve fit with IRLS in ActivityBase, from 11-point, two-fold serial dilution of test compounds.
As for `CCCCOc1nc(N)c2[nH]c(=O)n(CCCCC3CCCN(CC)C3)c2n1` (stereo not drawn) [Example 56, 6-Amino-2-(butyloxy)-9-[4-(1-ethyl-3-piperidinyl)butyl]-7,9-dihydro-8H-purin-8-one], the EC50 was less than 1580 nM.

Consider `CCCCNc1nc(N)c2[nH]c(=O)n(CCCCC3CCNCC3)c2n1` [Example 120, 6-Amino-2-(butylamino)-9-[4-(4-piperidinyl)butyl]-7,9-dihydro-8H-purin-8-one], for which the EC50 is less than 1580 nM. For the molecule `CCCCOc1nc(N)c2[nH]c(=O)n(CCC3CCN(CC(C)C)CC3)c2n1` [Example 83, 6-Amino-2-(butyloxy)-9-{2-[1-(2-methylpropyl)-4-piperidinyl]ethyl}-7,9-dihydro-8H-purin-8-one], the EC50 is less than 1580 nM. Turning to `CCCCOc1nc(N)c2[nH]c(=O)n(CCCC3CCCN(CCC(C)C)C3)c2n1` (stereo not drawn) [Example 49, 6-Amino-2-(butyloxy)-9-{3-[1-(3-methylbutyl)-3-piperidinyl]propyl}-7,9-dihydro-8H-purin-8-one], the EC50 is less than 1580 nM. In the case of `CCCCOc1nc(N)c2[nH]c(=O)n(CCCC3CCN(CCC4CCCCC4)CC3)c2n1` [Example 103, 6-Amino-2-(butyloxy)-9-{3-[1-(2-cyclohexylethyl)-4-piperidinyl]propyl}-7,9-dihydro-8H-purin-8-one], the EC50 was less than 1580 nM. Under `CCCCOc1nc(N)c2[nH]c(=O)n(CCC3CCN(CC4CCCC4)CC3)c2n1` [Example 87, 6-Amino-2-(butyloxy)-9-{2-[1-(cyclopentylmethyl)-4-piperidinyl]ethyl}-7,9-dihydro-8H-purin-8-one] stands less than 1580 nM; under `CCCCOc1nc(N)c2[nH]c(=O)n(CCCCC3CCN(CCC(C)C)CC3)c2n1` [Example 113, 6-Amino-2-(butyloxy)-9-{4-[1-(3-methylbutyl)-4-piperidinyl]butyl}-7,9-dihydro-8H-purin-8-one], less than 1580 nM. Consider `CCCCOc1nc(N)c2[nH]c(=O)n(CCCC3CCCCN3CC3CCCC3)c2n1` (stereo not drawn) [Example 21, 6-Amino-2-(butyloxy)-9-{3-[1-(cyclopentylmethyl)-2-piperidinyl]propyl}-7,9-dihydro-8H-purin-8-one], for which the EC50 was less than 1580 nM. `CCCCOc1nc(N)c2[nH]c(=O)n(CCCCCC3CCN(CC4CCCC4)CC3)c2n1` [Example 130, 6-Amino-2-(butyloxy)-9-{5-[1-(cyclopentylmethyl)-4-piperidinyl]pentyl}-7,9-dihydro-8H-purin-8-one hydrochloride]: the EC50 is less than 1580 nM.

With `CCCCOc1nc(N)c2[nH]c(=O)n(CCC3CCN(CCC(C)C)CC3)c2n1` [Example 85, 6-Amino-2-(butyloxy)-9-{2-[1-(3-methylbutyl)-4-piperidinyl]ethyl}-7,9-dihydro-8H-purin-8-one], the EC50 is less than 1580 nM.

As to `CCCCOc1nc(N)c2[nH]c(=O)n(CC3CCCN(CC(C)C)C3)c2n1` (stereo not drawn) [Example 26, 6-Amino-2-(butyloxy)-9-{[1-(2-methylpropyl)-3-piperidinyl]methyl}-7,9-dihydro-8H-purin-8-one], the EC50 was less than 1580 nM. The result for `CCCCOc1nc(N)c2[nH]c(=O)n(CCCC3CCCN(C(C)C)C3)c2n1` (stereo not drawn) [Example 46, 6-Amino-2-(butyloxy)-9-{3-[1-(1-methylethyl)-3-piperidinyl]propyl}-7,9-dihydro-8H-purin-8-one] reads less than 1580 nM; that for `CCCCOc1nc(N)c2[nH]c(=O)n(CC3CCN(CC(C)C)CC3)c2n1` [Example 73, 6-Amino-2-(butyloxy)-9-{[1-(2-methylpropyl)-4-piperidinyl]methyl}-7,9-dihydro-8H-purin-8-one], less than 1580 nM.

`CCCCOc1nc(N)c2[nH]c(=O)n(CCCC3CCN(CC4CCCC4)CC3)c2n1` [Example 101, 6-Amino-2-(butyloxy)-9-{3-[1-(cyclopentylmethyl)-4-piperidinyl]propyl}-7,9-dihydro-8H-purin-8-one]: the EC50 was less than 1580 nM. The result for `CCC[C@H](C)Oc1nc(N)c2[nH]c(=O)n(CC3CCN(CC)CC3)c2n1` [Example 78, 6-Amino-9-[(1-ethyl-4-piperidinyl)methyl]-2-{[(1S)-1-methylbutyl]oxy}-7,9-dihydro-8H-purin-8-one] reads less than 1580 nM; that for `CCCCOc1nc(N)c2[nH]c(=O)n(CCCC3CCCN(CC(C)C)C3)c2n1` (stereo not drawn) [Example 48, 6-Amino-2-(butyloxy)-9-{3-[1-(2-methylpropyl)-3-piperidinyl]propyl}-7,9-dihydro-8H-purin-8-one hydrochloride], less than 1580 nM. Take `CCCCOc1nc(N)c2[nH]c(=O)n(CCCCC3CCCN(CCC(C)C)C3)c2n1` (stereo not drawn) [Example 61, 6-Amino-2-(butyloxy)-9-{4-[1-(3-methylbutyl)-3-piperidinyl]butyl}-7,9-dihydro-8H-purin-8-one]: the EC50 is less than 1580 nM. Turning to `CCCCOc1nc(N)c2[nH]c(=O)n(CCCC3CCCN(C4CCCC4)C3)c2n1` (stereo not drawn) [Example 50, 6-Amino-2-(butyloxy)-9-[3-(1-cyclopentyl-3-piperidinyl)propyl]-7,9-dihydro-8H-purin-8-one], the EC50 is less than 1580 nM. Regarding `CCCCOc1nc(N)c2[nH]c(=O)n(CC3CCCN(CCCC)C3)c2n1` (stereo not drawn) [Example 25, 6-Amino-2-(butyloxy)-9-[(1-butyl-3-piperidinyl)methyl]-7,9-dihydro-8H-purin-8-one], the EC50 was less than 1580 nM. As to `CCCCOc1nc(N)c2[nH]c(=O)n(CC3CCCNC3)c2n1` (stereo not drawn) [Example 4, hydrochloride], the EC50 is less than 1580 nM. `CCCCOc1nc(N)c2[nH]c(=O)n(CCC3CCN(CCC)CC3)c2n1` [Example 80, 6-Amino-2-(butyloxy)-9-[2-(1-propyl-4-piperidinyl)ethyl]-7,9-dihydro-8H-purin-8-one]: the EC50 was less than 1580 nM.

For `CCCCOc1nc(N)c2[nH]c(=O)n(CCCCC3CCN(CCC4CCCCC4)CC3)c2n1` [Example 117, 6-Amino-2-(butyloxy)-9-{4-[1-(2-cyclohexylethyl)-4-piperidinyl]butyl}-7,9-dihydro-8H-purin-8-one], the EC50 is less than 1580 nM. For `CCCCOc1nc(N)c2[nH]c(=O)n(CCCCC3CCN(CC(C)C)CC3)c2n1` [Example 111, 6-Amino-2-(butyloxy)-9-{4-[1-(2-methylpropyl)-4-piperidinyl]butyl}-7,9-dihydro-8H-purin-8-one], the EC50 is less than 1580 nM. In the case of `CCCCOc1nc(N)c2[nH]c(=O)n(CCCCCC3CCN(CCC4CCCCC4)CC3)c2n1` [Example 131, 6-Amino-2-(butyloxy)-9-{5-[1-(2-cyclohexylethyl)-4-piperidinyl]pentyl}-7,9-dihydro-8H-purin-8-one hydrochloride], the EC50 is less than 1580 nM. Under `CCCCOc1nc(N)c2[nH]c(=O)n(CCCC3CCN(CCC(C)C)CC3)c2n1` [Example 99, 6-Amino-2-(butyloxy)-9-{3-[1-(3-methylbutyl)-4-piperidinyl]propyl}-7,9-dihydro-8H-purin-8-one] stands less than 1580 nM. Under `CCCCOc1nc(N)c2[nH]c(=O)n(CCCCC3CCCN(C(C)C)C3)c2n1` (stereo not drawn) [Example 58, 6-Amino-2-(butyloxy)-9-{4-[1-(1-methylethyl)-3-piperidinyl]butyl}-7,9-dihydro-8H-purin-8-one] stands less than 1580 nM; under `CCCCOc1nc(N)c2[nH]c(=O)n(CCCC3CCCNC3)c2n1` (stereo not drawn) [Example 43, 6-Amino-2-(butyloxy)-9-[3-(3-piperidinyl)propyl]-7,9-dihydro-8H-purin-8-one], less than 1580 nM; under `CCCCOc1nc(N)c2[nH]c(=O)n(CCCCC3CCCN(C4CCCC4)C3)c2n1` (stereo not drawn) [Example 62, 6-Amino-2-(butyloxy)-9-[4-(1-cyclopentyl-3-piperidinyl)butyl]-7,9-dihydro-8H-purin-8-one], less than 1580 nM. For the molecule `CCCCOc1nc(N)c2[nH]c(=O)n(CC3CCCN(CCC(C)C)C3)c2n1` (stereo not drawn) [Example 27, 6-Amino-2-(butyloxy)-9-{[1-(3-methylbutyl)-3-piperidinyl]methyl}-7,9-dihydro-8H-purin-8-one], the EC50 is less than 1580 nM. On to `CCCCOc1nc(N)c2[nH]c(=O)n(CCC3CCCN(CCC4CCCCC4)C3)c2n1` (stereo not drawn) [Example 39, 6-Amino-2-(butyloxy)-9-{2-[1-(2-cyclohexylethyl)-3-piperidinyl]ethyl}-7,9-dihydro-8H-purin-8-one], for which the EC50 is less than 1580 nM.
